Read-outs that look alike come from different tables or passages of the source.
Legend:
[1] = tested on: TNF-alpha induced hypothermia; assay: Acute hypothermia mouse model (TNF-alpha/zVAD-FMK induced hypothermia); format: in vivo; conditions: mice, oral gavage
Description: In this example, an acute hypothermia mouse model assay was used to evaluate the ability of compounds disclosed herein to inhibit TNF-alpha induced hypothermia.
Female C57BL/6 mice are randomly grouped and weighed on Day −1. On the day of the study (Day 0), mice are administered vehicle or test article by oral gavage. Fifteen minutes after oral administration of test agents, each mouse is administered an intraperitoneal (IP) injection of solution containing recombinant human tumor necrosis factor alpha (TNF-α, 25.0 μg) and zVAD-FMK (200 μg). Body temperature is measured at 0 hours (before IP injections) and every hour via rectal probe temperature measuring device. Three (3) hours after IP injections of TNF-α and zVAD/FMK, mice are euthanized by CO2 asphyxiation and blood is collected via cardiac puncture. Serum and plasma are harvested for determination of cytokine and compound levels, respectively. Separate groups of mice (satellite mice) are included for the determination of compound levels in plasma at the time of administration of TNFa/zVAD-FMK.
(S)-5-benzyl-N-(5-methyl-4-oxo-2,3,4,5-tetrahydrobenzo[b][1,4]oxazepin-3-yl)-4H-1,2,4-triazole-3-carboxamide (WO 2014/125444), having a structure as illustrated below, was used as a comparative compound and was examined using a similar protocol as described by WO 2014/125444.

[2] = tested on: TNF-alpha induced hypothermia; conditions: dose of 30 mg/kg, according to WO 2014/125444; cited from earlier work

SMILES	inhibition of TNF-alpha induced hypothermia ([1]; dose of 5 mg/kg)	inhibition of TNF-alpha induced hypothermia ([1]; 30 mg/kg, in the inventors hands) [%]	inhibition of TNF-alpha induced hypothermia [2] [%]
CN1C(=O)[C@@H](NC(=O)c2n[nH]c(Cc3ccccc3)n2)COc2ccc(C#CC(C)(C)O)cc21 [Compound I-30, (S)-5-benzyl-N-(7-(3-hydroxy-3-methylbut-1-yn-1l-yl)-5-methyl-4-oxo-2,3,4,5-tetrahydrobenzo[b][1,4]oxazepin-3-yl)-1H-1,2,4-triazole-3-carboxamide]	greater than 85%	–	–
CN1C(=O)[C@@H](NC(=O)c2nnc(Cc3ccccc3)[nH]2)COc2ccccc21 [comparative compound, (S)-5-benzyl-N-(5-methyl-4-oxo-2,3,4,5-tetrahydrobenzo[b][1,4]oxazepin-3-yl)-4H-1,2,4-triazole-3-carboxamide]	–	70	93
